Reference: paper PMC10771525 (Communications Biology, 2024)
Where no end group is shown, it is not given here.

Tests used:
CHRM4 = CHRM4 (Homo sapiens, UniProt P08173); experiment: GPCR panel (control), Arrestin, CHO-K1; assay type: cell-based; details: reference agonist
CHRM5 = CHRM5 (Homo sapiens, UniProt P08912); experiment: GPCR panel (control), Arrestin, CHO-K1; assay type: cell-based; details: reference agonist
CHRM2 = CHRM2 (Homo sapiens, UniProt P08172); details: reference agonist, CHRM2, CHO-K1, Arrestin
CNR1 = CNR1 (Homo sapiens, UniProt P21554); details: reference agonist, CNR1, CHO-K1, Arrestin
CNR2 = CNR2 (Homo sapiens, UniProt P34972); details: reference agonist, CNR2, CHO-K1, Arrestin
DRD2L = DRD2L (Homo sapiens, UniProt P14416); details: reference agonist, CHO-K1, Arrestin
DRD2S = DRD2S (Homo sapiens, UniProt P14416); details: reference agonist, CHO-K1, Arrestin
DRD4 = DRD4 (Homo sapiens, UniProt P21917); details: reference agonist, DRD4, CHO-K1, Arrestin
GPR120 = GPR120 (Homo sapiens, UniProt Q5NUL3); experiment: GPCR panel (control), Arrestin, CHO-K1; assay type: cell-based; details: reference agonist
HRH2 = HRH2 (Homo sapiens, UniProt P25021); details: reference agonist, HRH2, CHO-K1, Arrestin
OXTR = molecular target: T1, OXTR (Homo sapiens, UniProt P30559); experiment: GPCR panel (control), Arrestin, CHO-K1; assay type: cell-based; details: reference agonist
T1 construct: expressed in transfected cells; host or cells: CHO-K1

ADRA1B = ADRA1B (Homo sapiens, UniProt P35368); experiment: GPCR panel (control), Arrestin, CHO-K1; assay type: cell-based; details: reference agonist
PTGER2 = PTGER2 (Homo sapiens, UniProt P43116); experiment: GPCR panel (control), Arrestin, CHO-K1; assay type: cell-based; details: reference agonist
PTGER3 = PTGER3 (Homo sapiens, UniProt P43115); experiment: GPCR panel (control), Arrestin, CHO-K1; assay type: cell-based; details: reference agonist
PTGER4 = PTGER4 (Homo sapiens, UniProt P35408); experiment: GPCR panel (control), Arrestin, HEK-293; assay type: cell-based; details: reference agonist, PTGER4, HEK-293, Arrestin
TACR3 = molecular target: T2, TACR3 (Homo sapiens, UniProt P29371); experiment: GPCR panel (control), Arrestin, CHO-K1; assay type: cell-based; details: reference agonist
T2 construct: expressed in transfected cells; host or cells: CHO-K1

UTR2 = molecular target: T3, UTR2 (Homo sapiens, UniProt Q9UKP6); experiment: GPCR panel (control), Arrestin, CHO-K1; assay type: cell-based; details: reference agonist
T3 construct: expressed in transfected cells; host or cells: CHO-K1

F2RL3 = molecular target: T4, F2RL3 (Homo sapiens, UniProt Q96RI0); experiment: GPCR panel (control), Arrestin, CHO-K1; assay type: cell-based; details: reference agonist
T4 construct: expressed in transfected cells; host or cells: CHO-K1

CALCR = CALCR (Homo sapiens, UniProt P30988); details: reference agonist, U2OS, Arrestin
CALCR + RAMP3 = CALCR + RAMP3 (Homo sapiens, UniProt O60896+P30988); details: reference agonist, CALCR + RAMP3, CHO-K1, Arrestin
CALCR + RAMP2 = CALCR + RAMP2 (Homo sapiens, UniProt O60895+P30988); details: reference agonist, CALCR + RAMP2, CHO-K1, Arrestin
EDNRA = EDNRA (Homo sapiens, UniProt P25101); details: reference agonist, CHO-K1, Arrestin
EDNRB = molecular target: T5, EDNRB (Homo sapiens, UniProt P24530); experiment: GPCR panel (control), Arrestin, CHO-K1; assay type: cell-based; details: reference agonist
T5 construct: expressed in transfected cells; host or cells: CHO-K1

GLP1R = GLP1R (Homo sapiens, UniProt P43220); details: reference agonist, CHO-K1, Arrestin
HSR1A = HSR1A (Homo sapiens, UniProt Q92847); details: reference agonist, U2OS, Arrestin
HCRTR1 = molecular target: T6, HCRTR1 (Homo sapiens, UniProt O43613); experiment: GPCR panel (control), Arrestin, CHO-K1; assay type: cell-based; details: reference agonist
T6 construct: expressed in transfected cells; host or cells: CHO-K1

OPRL1 = OPRL1 (Homo sapiens, UniProt P41146); details: reference agonist, OPRL1, CHO-K1, Arrestin
ADCYAP1R1 = ADCYAP1R1 (Homo sapiens, UniProt P41586); details: reference agonist, ADCYAP1R1, CHO-K1, Arrestin
PTHR1 = molecular target: T7, PTHR1 (Homo sapiens, UniProt Q03431); experiment: GPCR panel (control), Arrestin, CHO-K1; assay type: cell-based; details: reference agonist
T7 construct: expressed in transfected cells; host or cells: CHO-K1

PPYR1 (NPY4) = molecular target: T8, PPYR1 (NPY4) (Homo sapiens, UniProt P50391); experiment: GPCR panel (control), Arrestin, CHO-K1; assay type: cell-based; details: reference agonist
T8 construct: expressed in transfected cells; host or cells: CHO-K1

BDKRB2 = molecular target: T9, BDKRB2 (Homo sapiens, UniProt P30411); experiment: GPCR panel (control), Arrestin, CHO-K1; assay type: cell-based; details: reference agonist
T9 construct: expressed in transfected cells; host or cells: CHO-K1

RXFP3 = molecular target: T10, RXFP3 (Homo sapiens, UniProt Q9NSD7); experiment: GPCR panel (control), Arrestin, U2OS; assay type: cell-based; details: reference agonist
T10 construct: expressed in transfected cells; host or cells: U2OS

F2RL1 = molecular target: T11, F2RL1 (Homo sapiens, UniProt P55085); experiment: GPCR panel (control), Arrestin, U2OS; assay type: cell-based; details: reference agonist
T11 construct: expressed in transfected cells; host or cells: U2OS

CRHR2 = molecular target: T12, CRHR2 (Homo sapiens, UniProt Q13324); experiment: GPCR panel (control), Arrestin, CHO-K1; assay type: cell-based; details: reference agonist
T12 construct: expressed in transfected cells; host or cells: CHO-K1

SCTR = molecular target: T13, SCTR (Homo sapiens, UniProt P47872); experiment: GPCR panel (control), Arrestin, CHO-K1; assay type: cell-based; details: reference agonist
T13 construct: expressed in transfected cells; host or cells: CHO-K1

SSTR2 = SSTR2 (Homo sapiens, UniProt P30874); details: reference agonist, SSTR2, CHO-K1, Arrestin
SSTR5 = SSTR5 (Homo sapiens, UniProt P35346); details: reference agonist, SSTR5, CHO-K1, Arrestin
F2R = molecular target: T14, F2R (Homo sapiens, UniProt P25116); experiment: GPCR panel (control), Arrestin, CHO-K1; assay type: cell-based; details: reference agonist
T14 construct: expressed in transfected cells; host or cells: CHO-K1

PTHR2 = molecular target: T15, PTHR2 (Homo sapiens, UniProt P49190); experiment: GPCR panel (control), Arrestin, CHO-K1; assay type: cell-based; details: reference agonist
T15 construct: expressed in transfected cells; host or cells: CHO-K1

FPRL1 = molecular target: T16, FPRL1 (Homo sapiens, UniProt P25090); experiment: GPCR panel (control), Arrestin, CHO-K1; assay type: cell-based; details: reference agonist
T16 construct: expressed in transfected cells; host or cells: CHO-K1

FPR1 = molecular target: T17, FPR1 (Homo sapiens, UniProt P21462); experiment: GPCR panel (control), Arrestin, CHO-K1; assay type: cell-based; details: reference agonist
T17 construct: expressed in transfected cells; host or cells: CHO-K1

OPRM1 = OPRM1 (Homo sapiens, UniProt P35372); details: reference agonist, OPRM1, U2OS, Arrestin
CCR9 = experiment: GPCR panel (control), Arrestin, CHO-K1; assay type: cell-based, human; details: reference agonist

CNR1, sequence (P21554 whole entry): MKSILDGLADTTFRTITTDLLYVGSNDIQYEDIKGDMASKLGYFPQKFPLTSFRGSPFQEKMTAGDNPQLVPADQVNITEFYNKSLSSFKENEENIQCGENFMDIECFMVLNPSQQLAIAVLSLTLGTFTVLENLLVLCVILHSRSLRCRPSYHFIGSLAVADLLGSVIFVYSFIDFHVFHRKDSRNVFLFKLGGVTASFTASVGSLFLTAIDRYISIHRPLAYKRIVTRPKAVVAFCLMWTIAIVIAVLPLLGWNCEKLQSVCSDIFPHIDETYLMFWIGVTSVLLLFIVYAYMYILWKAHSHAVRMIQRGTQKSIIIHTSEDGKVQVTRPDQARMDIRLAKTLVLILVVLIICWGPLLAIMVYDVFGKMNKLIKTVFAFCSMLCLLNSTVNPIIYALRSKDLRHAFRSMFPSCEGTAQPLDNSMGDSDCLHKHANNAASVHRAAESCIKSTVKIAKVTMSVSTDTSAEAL
DRD2L, sequence (P14416 whole entry): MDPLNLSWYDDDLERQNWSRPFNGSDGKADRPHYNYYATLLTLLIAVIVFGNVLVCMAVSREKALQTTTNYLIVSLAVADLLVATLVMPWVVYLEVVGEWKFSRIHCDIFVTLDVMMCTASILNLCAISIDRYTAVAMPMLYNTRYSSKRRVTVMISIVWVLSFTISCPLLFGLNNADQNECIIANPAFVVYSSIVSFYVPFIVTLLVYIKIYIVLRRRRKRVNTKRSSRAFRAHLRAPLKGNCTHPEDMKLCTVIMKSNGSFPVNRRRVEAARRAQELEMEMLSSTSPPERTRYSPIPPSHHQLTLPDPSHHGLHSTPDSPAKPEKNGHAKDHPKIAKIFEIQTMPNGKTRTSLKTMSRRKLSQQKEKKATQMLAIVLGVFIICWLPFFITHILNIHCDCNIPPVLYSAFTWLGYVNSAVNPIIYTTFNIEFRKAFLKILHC
ADCYAP1R1, sequence (P41586 21-468): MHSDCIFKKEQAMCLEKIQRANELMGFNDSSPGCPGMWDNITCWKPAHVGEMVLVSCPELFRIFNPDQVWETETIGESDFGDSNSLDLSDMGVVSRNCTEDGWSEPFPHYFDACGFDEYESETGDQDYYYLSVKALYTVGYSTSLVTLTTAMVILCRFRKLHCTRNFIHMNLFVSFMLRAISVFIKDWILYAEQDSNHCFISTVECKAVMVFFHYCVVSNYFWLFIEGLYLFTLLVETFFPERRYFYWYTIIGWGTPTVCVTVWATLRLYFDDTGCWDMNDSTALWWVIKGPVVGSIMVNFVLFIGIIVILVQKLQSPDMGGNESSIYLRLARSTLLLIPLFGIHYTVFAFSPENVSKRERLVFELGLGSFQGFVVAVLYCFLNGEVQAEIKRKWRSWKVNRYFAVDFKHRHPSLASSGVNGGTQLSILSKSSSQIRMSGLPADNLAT
GPR120, sequence (Q5NUL3 whole entry): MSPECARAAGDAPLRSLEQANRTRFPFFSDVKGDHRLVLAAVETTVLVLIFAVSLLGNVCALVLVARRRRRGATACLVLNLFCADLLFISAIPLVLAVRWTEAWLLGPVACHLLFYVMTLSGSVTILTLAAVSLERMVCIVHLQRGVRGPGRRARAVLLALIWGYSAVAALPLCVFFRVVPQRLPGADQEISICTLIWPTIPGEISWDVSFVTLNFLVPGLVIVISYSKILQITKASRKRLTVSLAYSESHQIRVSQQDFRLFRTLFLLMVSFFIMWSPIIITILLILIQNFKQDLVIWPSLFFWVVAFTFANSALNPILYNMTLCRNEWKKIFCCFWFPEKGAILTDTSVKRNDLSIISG
T9 sequence (P30411 whole entry): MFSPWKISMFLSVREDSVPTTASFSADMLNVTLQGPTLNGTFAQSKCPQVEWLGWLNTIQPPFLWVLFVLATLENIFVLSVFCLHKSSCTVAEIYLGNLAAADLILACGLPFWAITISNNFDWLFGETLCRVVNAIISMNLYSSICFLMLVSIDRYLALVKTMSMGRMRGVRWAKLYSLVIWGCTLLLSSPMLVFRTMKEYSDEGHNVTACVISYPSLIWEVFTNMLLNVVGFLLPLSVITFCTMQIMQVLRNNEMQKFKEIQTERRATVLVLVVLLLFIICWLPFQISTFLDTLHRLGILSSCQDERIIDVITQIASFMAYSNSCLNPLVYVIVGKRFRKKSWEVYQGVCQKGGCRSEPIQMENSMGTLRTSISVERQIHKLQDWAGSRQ
T15 sequence (P49190 25-550): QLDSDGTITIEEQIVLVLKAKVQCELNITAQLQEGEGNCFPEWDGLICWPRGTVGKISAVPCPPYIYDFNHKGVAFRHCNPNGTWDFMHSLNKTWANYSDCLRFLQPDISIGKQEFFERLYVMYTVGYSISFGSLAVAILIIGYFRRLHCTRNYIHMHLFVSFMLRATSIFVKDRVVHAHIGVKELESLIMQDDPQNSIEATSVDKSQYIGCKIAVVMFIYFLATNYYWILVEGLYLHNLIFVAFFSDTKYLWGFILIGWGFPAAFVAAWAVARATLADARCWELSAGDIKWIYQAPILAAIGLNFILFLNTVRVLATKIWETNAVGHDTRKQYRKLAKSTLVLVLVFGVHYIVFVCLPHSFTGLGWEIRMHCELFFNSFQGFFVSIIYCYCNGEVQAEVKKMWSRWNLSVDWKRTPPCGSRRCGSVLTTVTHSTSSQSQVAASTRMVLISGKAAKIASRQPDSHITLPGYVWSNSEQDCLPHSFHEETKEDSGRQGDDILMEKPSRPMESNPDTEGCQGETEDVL
T3 sequence (Q9UKP6 whole entry): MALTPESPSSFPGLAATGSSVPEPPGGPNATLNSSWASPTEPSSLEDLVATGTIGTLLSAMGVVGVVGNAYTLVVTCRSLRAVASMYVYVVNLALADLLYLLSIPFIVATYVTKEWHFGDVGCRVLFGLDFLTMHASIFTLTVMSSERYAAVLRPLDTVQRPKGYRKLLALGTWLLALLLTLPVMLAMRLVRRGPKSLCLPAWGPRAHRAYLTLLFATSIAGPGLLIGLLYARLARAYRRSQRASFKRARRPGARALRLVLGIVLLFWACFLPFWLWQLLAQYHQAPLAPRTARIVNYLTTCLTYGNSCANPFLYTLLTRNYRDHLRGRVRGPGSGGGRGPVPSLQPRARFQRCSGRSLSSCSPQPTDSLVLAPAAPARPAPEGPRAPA
OPRM1, sequence (P35372 whole entry): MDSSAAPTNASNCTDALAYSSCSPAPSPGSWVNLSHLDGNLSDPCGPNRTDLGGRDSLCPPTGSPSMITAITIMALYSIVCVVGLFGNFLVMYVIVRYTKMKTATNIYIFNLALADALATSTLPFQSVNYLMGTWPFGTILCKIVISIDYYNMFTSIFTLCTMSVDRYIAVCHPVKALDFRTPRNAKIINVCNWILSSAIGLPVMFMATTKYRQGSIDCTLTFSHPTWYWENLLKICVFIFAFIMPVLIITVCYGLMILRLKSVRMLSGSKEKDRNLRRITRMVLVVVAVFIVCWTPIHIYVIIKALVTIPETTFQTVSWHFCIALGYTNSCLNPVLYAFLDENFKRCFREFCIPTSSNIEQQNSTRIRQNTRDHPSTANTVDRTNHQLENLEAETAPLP
T5 sequence (P24530 27-442): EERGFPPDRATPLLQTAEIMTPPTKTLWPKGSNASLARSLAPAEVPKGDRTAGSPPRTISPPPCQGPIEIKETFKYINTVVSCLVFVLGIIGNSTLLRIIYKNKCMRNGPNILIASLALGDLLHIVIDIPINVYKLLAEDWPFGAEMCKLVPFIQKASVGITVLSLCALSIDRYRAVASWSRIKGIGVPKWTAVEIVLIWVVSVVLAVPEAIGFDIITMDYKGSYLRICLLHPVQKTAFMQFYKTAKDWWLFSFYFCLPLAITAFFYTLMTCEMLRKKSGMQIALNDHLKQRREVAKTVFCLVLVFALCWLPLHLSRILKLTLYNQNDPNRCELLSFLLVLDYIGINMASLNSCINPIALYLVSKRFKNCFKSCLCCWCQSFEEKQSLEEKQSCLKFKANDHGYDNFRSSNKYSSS
OPRL1, sequence (P41146 whole entry): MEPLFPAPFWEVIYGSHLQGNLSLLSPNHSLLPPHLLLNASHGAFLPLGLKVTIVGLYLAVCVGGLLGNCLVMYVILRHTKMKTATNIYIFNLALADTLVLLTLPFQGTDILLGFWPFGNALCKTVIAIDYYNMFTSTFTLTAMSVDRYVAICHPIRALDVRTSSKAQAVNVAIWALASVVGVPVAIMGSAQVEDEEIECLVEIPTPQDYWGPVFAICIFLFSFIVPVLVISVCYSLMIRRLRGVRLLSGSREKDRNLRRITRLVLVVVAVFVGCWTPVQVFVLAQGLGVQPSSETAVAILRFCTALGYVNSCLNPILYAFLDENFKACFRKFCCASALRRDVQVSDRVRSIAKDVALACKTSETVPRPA
PTGER4, sequence (P35408 whole entry): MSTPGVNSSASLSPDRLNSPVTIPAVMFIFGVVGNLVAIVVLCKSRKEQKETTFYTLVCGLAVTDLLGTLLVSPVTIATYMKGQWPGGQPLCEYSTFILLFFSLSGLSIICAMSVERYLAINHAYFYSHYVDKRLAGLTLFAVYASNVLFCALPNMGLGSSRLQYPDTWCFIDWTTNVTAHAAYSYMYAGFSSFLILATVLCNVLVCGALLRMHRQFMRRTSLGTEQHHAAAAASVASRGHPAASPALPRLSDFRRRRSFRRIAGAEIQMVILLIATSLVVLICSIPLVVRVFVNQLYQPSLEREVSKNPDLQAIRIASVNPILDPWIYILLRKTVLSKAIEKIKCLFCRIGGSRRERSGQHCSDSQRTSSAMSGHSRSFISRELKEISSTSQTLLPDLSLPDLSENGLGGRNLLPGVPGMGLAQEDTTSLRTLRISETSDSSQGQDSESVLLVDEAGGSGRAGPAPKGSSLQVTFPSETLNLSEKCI

Molecule: CC(=O)OCC[N+](C)(C)C [Acetylcholine]
- EC80 (CHRM4): 200 µM
- EC80 (CHRM5): 150 µM
- EC80 (CHRM2): 230 µM

Molecule: CCCCCCC(C)(C)c1ccc([C@@H]2C[C@H](O)CC[C@H]2CCCO)c(O)c1 [CP55940]
- EC80 (CNR1): 0.17 µM
- EC80 (CNR2): 0.14 µM

Molecule: NCCc1ccc(O)c(O)c1 [Dopamine]
- EC80 (DRD2L): 18 µM
- EC80 (DRD2S): 5.4 µM
- EC80 (DRD4): 21 µM

Molecule: O=C(O)CCc1ccc(NCc2cccc(Oc3ccccc3)c2)cc1 [GW9508]
- EC80 (GPR120): 570 µM

Molecule: NCCc1c[nH]cn1 [Histamine]
- EC80 (HRH2): 110 µM

Molecule: CC[C@H](C)[C@@H]1NC(=O)[C@H](Cc2ccc(O)cc2)NC(=O)[C@@H](N)CSSC[C@@H](C(=O)N2CCC[C@H]2C(=O)N[C@@H](CC(C)C)C(=O)NCC(N)=O)NC(=O)[C@H](CC(N)=O)NC(=O)[C@H](CCC(N)=O)NC1=O [Oxytocin]
- EC80 (OXTR): 0.28 µM

Molecule: CNC[C@H](O)c1cccc(O)c1 [Phenylephrine]
- EC80 (ADRA1B): 10 µM

Molecule: CCCCC[C@H](O)/C=C/[C@H]1[C@H](O)CC(=O)[C@@H]1C/C=C\CCCC(=O)O [Prostaglandin E2]
- EC80 (PTGER2): 42 µM
- EC80 (PTGER3): 0.98 µM
- EC80 (PTGER4): 0.14 µM

Molecule: CSCC[C@H](NC(=O)[C@H](CC(C)C)NC(=O)CNC(=O)[C@H](Cc1ccccc1)NC(=O)[C@H](Cc1ccccc1)NC(=O)[C@H](CCC(N)=O)NC(=O)[C@H](CCC(N)=O)NC(=O)[C@@H]1CCCN1C(=O)[C@H](CCCCN)NC(=O)[C@@H]1CCCN1C(=O)[C@@H](N)CCCN=C(N)N)C(N)=O [Substance P]
- EC80 (TACR3): 0.92 µM

Molecule: CC(C)[C@H](NC(=O)[C@@H]1CSSC[C@H](NC(=O)[C@H](CC(=O)O)NC(=O)[C@@H]2CCCN2C(=O)[C@@H](NC(=O)[C@@H](N)CCC(=O)O)[C@@H](C)O)C(=O)N[C@@H](Cc2ccccc2)C(=O)N[C@@H](Cc2c[nH]c3ccccc23)C(=O)N[C@@H](CCCCN)C(=O)N[C@@H](Cc2ccc(O)cc2)C(=O)N1)C(=O)O [Urotensin II]
- EC80 (UTR2): 0.031 µM

Molecule: AYPGKF-NH2
- EC80 (F2RL3): 370 µM

Molecule: Calcitonin
- EC80 (CALCR): 1.6 µM
- EC80 (CALCR + RAMP3): 8.9 µM
- EC80 (CALCR + RAMP2): 0.44 µM

Molecule: Endothelin-1
- EC80 (EDNRA): 0.19 µM

Molecule: Endothelin-3
- EC80 (EDNRB): 0.26 µM

Molecule: Exendin-4
- EC80 (GLP1R): 0.24 µM

Molecule: Ghrelin
- EC80 (HSR1A): 0.38 µM

Molecule: Orexin A
- EC80 (HCRTR1): 0.52 µM

Molecule: Orphanin FQ
- EC80 (OPRL1): 0.15 µM

Molecule: PACAP-27
- EC80 (ADCYAP1R1): 0.14 µM

Molecule: PTH(1-34)
- EC80 (PTHR1): 0.28 µM

Molecule: Pancreatic polypeptide
- EC80 (PPYR1 (NPY4)): 0.062 µM

Molecule: RPPGFSPFR [Bradykinin]
- EC80 (BDKRB2): 0.035 µM

Molecule: Relaxin-3
- EC80 (RXFP3): 3.1 µM

Molecule: SLIGRL-NH2
- EC80 (F2RL1): 24 µM

Molecule: Sauvagine
- EC80 (CRHR2): 0.46 µM

Molecule: Secretin
- EC80 (SCTR): 0.074 µM

Molecule: Somatostatin 28
- EC80 (SSTR2): 0.093 µM
- EC80 (SSTR5): 1.3 µM

Molecule: TFLLR-NH2
- EC80 (F2R): 1300 µM

Molecule: TIP-39
- EC80 (PTHR2): 0.13 µM

Molecule: WKYMVm-NH2
- EC80 (FPRL1): 0.067 µM
- EC80 (FPR1): 0.62 µM

Molecule: met-Enkephalin
- EC80 (OPRM1): 54 µM

B1: CCL25 (protein, UniProt O15444 24-150, looked up)
C-C motif chemokine 25: QGVFEDCCLAYHYPIGWAVLRRAWTYRIQEVSGSCNLPAAIFYLPKRHRKVCGNPKSREVQRAMKLLDARNKVFAKLHHNTQTFQAGPHAVKKLSSGNSKLSSSKFSNPISSSKRNVSLLISANSGL
- EC80 (CCR9): 14 µM
